Reference: patent US9051310B2, “Nicotinamide derivative or salt thereof” (FUJIFILM Corporation, priority 2011, dated 2015)

How the values were obtained:
[1] = system: THP-1 cells (TNFα secretion on human IgG-coated plate); assay: TNFα generation assay; type: cell-based; details: IFN-γ differentiated THP-1 cells, 7 hours, AlphaLISA, read-out: IC50 of TNFα generation inhibitory activity
In short: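 THP-1 cells were differentiated with 10 ng/ml IFN-γ for 2 days, then preincubated with compound for 30 min at room temperature. They were then plated at 5×10^4 cells/well on plates coated with human IgG (10 μg/ml). TNFα secreted over 7 h of culture was quantified by AlphaLISA.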

[2] = target: T1, glutathione S-transferase (GST)-linked full-length human Syk protein (Homo sapiens, UniProt P43405); assay: Syk enzyme assay; type: biochemical; details: 0.83 nM Syk, time-resolved fluorescence; read-out: IC50 of Syk-inhibitory activity
T1 construct: glutathione S-transferase (GST)-linked full-length human Syk protein; purchased Carna Biosciences; host or cells: Baculovirus expression system
In short: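 Phosphotyrosine on a biotin-peptide substrate (0.5 μM) was read by time-resolved fluorescence at 615 and 665 nm with Eu-anti-pTyr antibody and APC-streptavidin after 1 h EDTA stop.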

[3] = system: THP-1 cells (phagocytosis of opsonized Escherichia coli); assay: Antibody-dependent phagocytosis assay; type: cell-based; details: Homo sapiens; IFNγ differentiated THP-1 cells, opsonized pHrodo Escherichia coli, 3 hours; read-out: IC50 upon phagocytosis inhibition
Protocol: THP-1 cells (2×10^5 cells/ml), which were human monocytoid cells, were cultured in the presence of 10 ng/ml IFNγ for 2 days, and they were induced to differentiate into macrophage-like cells. The differentiation-induced THP-1 cells were recovered, and the cells (5×10^4 cells/well) were then allowed to react with a predetermined concentration of test compound at room temperature for 30 minutes. Thereafter, Escherichia coli (Life Technologies) labeled with a pH-sensitive dye (pHrodo) was subjected to opsonization using an anti-Escherichia coli antibody (Life Technologies). Then, the resultant was added to the THP-1 cells obtained above, followed by incubation at 37° C. for 3 hours. Opsonized Escherichia coli and cell-permeable fluorescent dye (Calcein AM) were simultaneously added thereto, followed by quantitative determination of phagocytosis of opsonized Escherichia coli in viable cells using an IN Cell Analyzer.

SMILES	IC50 [1] [nM]	IC50 [2] [nM]	IC50 [3] [nM]
COCCn1ncc2c(Nc3nc(N[C@H](C4CC4)[C@H](C)N)c(F)cc3C(N)=O)cccc21 [Example 2-306, 6-(((1R,2S)-2-amino-1-cyclopropylpropyl)amino)-5-fluoro-2-((1-(2-methoxyethyl)-1H-indazol-4-yl)amino)nicotinamide]	130 to 200	< 10	1000 to 3000
CCC[C@@H](Nc1nc(Nc2cncc3c2cnn3CC)c(C(N)=O)cc1F)[C@H](C)N [Example 2-319, 6-(((2S,3R)-2-aminohexan-3-yl)amino)-2-((1-ethyl-1H-pyrazolo[3,4-c]pyridin-4-yl)amino)-5-fluoronicotinamide]	65 to 130	< 10	< 1000
C[C@H](N)[C@@H](CC1CC1)Nc1nc(Nc2cccc3c2cnn3CC(F)F)c(C(N)=O)cc1F [Example 2-21, 6-(((2R,3S)-3-amino-1-cyclopropylbutan-2-yl)amino)-2-((1-(2,2-difluoroethyl)-1H-indazol-4-yl)amino)-5-fluoronicotinamide]	130 to 200	< 10	< 1000
CCn1ncc2c(Nc3nc(N[C@H](C4CCC4)[C@H](C)N)c(F)cc3C(N)=O)cncc21 [Example 2-406, 6-(((1R,2S)-2-amino-1-cyclobutylpropyl)amino)-2-((1-ethyl-1H-pyrazolo[3,4-c]pyridin-4-yl)amino)-5-fluoronicotinamide]	130 to 200	< 10	1000 to 3000
COc1ncc(Nc2nc(N[C@H](C3CC3)[C@H](C)N)c(F)cc2C(N)=O)cc1-n1ccnn1 [Example 2-162, 6-(((1R,2S)-2-amino-1-cyclopropylpropyl)amino)-5-fluoro-2-((6-methoxy-5-(1H-1,2,3-triazol-1-yl)pyridin-3-yl)amino)nicotinamide]	130 to 200	10 to 50	1000 to 3000
CCCC[C@@H](Nc1nc(Nc2cncc3c2cnn3CC)c(C(N)=O)cc1F)[C@H](C)N [Example 2-321, 6-(((2S,3R)-2-aminoheptan-3-yl)amino)-2-((1-ethyl-1H-pyrazolo[3,4-c]pyridin-4-yl)amino)-5-fluoronicotinamide]	130 to 200	< 10	1000 to 3000
Cc1ncc(Nc2nc(N[C@@H]3CCOC[C@@H]3N)c(F)cc2C(N)=O)cc1-n1nccn1 [Example 2-214, 6-(((3R,4R)-3-aminotetrahydro-2H-pyran-4-yl)amino)-5-fluoro-2-((6-methyl-5-(2H-1,2,3-triazol-2-yl)pyridin-3-yl)amino)nicotinamide]	65 to 130	< 10	1000 to 3000
Cc1ncc(Nc2nc(N[C@H](c3ccc(F)cc3)[C@H](C)N)c(F)cc2C(N)=O)cc1F [Example 2-272, 6-(((1R,2S)-2-amino-1-(4-fluorophenyl)propyl)amino)-5-fluoro-2-((5-fluoro-6-methylpyridin-3-yl)amino)nicotinamide]	130 to 200	10 to 50	< 1000
Cc1ncc(Nc2nc(N[C@H](c3ccccc3F)[C@H](C)N)c(F)cc2C(N)=O)cc1-n1nccn1 [Example 2-409, 6-(((1R,2S)-2-amino-1-(2-fluorophenyl)propyl)amino)-5-fluoro-2-((6-methyl-5-(2H-1,2,3-triazol-2-yl)pyridin-3-yl)amino)nicotinamide]	130 to 200	< 10	1000 to 3000
COc1ncc(Nc2nc(N[C@@H]3CCOC[C@@H]3N)c(F)cc2C(N)=O)cc1-n1nccn1 [Example 2-216, 6-(((3R,4R)-3-aminotetrahydro-2H-pyran-4-yl)amino)-5-fluoro-2-((6-methoxy-5-(2H-1,2,3-triazol-2-yl)pyridin-3-yl)amino)nicotinamide]	130 to 200	10 to 50	1000 to 3000
CC[C@H](N)[C@@H](C)Nc1nc(Nc2ccc3c(cnn3C)c2)c(C(N)=O)cc1F [Example 2-40, 6-(((2R,3S)-3-aminopentan-2-yl)amino)-5-fluoro-2-((1-methyl-1H-indazol-5-yl)amino)nicotinamide]	< 65	< 10	< 1000
CC(C)C[C@@H](Nc1nc(Nc2cncc(-n3cccn3)c2)c(C(N)=O)cc1F)[C@H](C)N [Example 2-70, 2-((5-(1H-pyrazol-1-yl)pyridin-3-yl)amino)-6-(((2S,3R)-2-amino-5-methylhexan-3-yl)amino)-5-fluoronicotinamide]	130 to 200	< 10	1000 to 3000
CC[C@@H](Nc1nc(Nc2cnc(C)c(C)c2)c(C(N)=O)cc1F)[C@H](C)N [Example 2-17, 6-(((2S,3R)-2-aminopentan-3-yl)amino)-2-((5,6-dimethylpyridin-3-yl)amino)-5-fluoronicotinamide]	65 to 130	< 10	< 1000
CC[C@H](N)[C@@H](CC)Nc1nc(Nc2cnc(C)c(C)c2)c(C(N)=O)cc1F [Example 2-36, 6-(((3R,4S)-4-aminohexan-3-yl)amino) 2-((5,6-dimethylpyridin-3-yl)amino)-5-fluoronicotinamide]	130 to 200	10 to 50	1000 to 3000

Continued, values first:

IC50 [1] [nM]	IC50 [2] [nM]	IC50 [3] [nM]	SMILES
65 to 130	< 10	< 1000	COc1nn(CC(F)F)c2ccc(Nc3nc(N[C@H](C4CC4)[C@H](C)N)c(F)cc3C(N)=O)cc12 [Example 2-74, 6-(((1R,2S)-2-amino-1-cyclopropylpropyl)amino)-2-((1-(2,2-difluoroethyl)-3-methoxy-1H-indazol-5-yl)amino)-5-fluoronicotinamide]
65 to 130	< 10	1000 to 3000	CC[C@@H](Nc1nc(Nc2ccc3c(c2)c(N(C)C)nn3C)c(C(N)=O)cc1F)[C@H](C)N [Example 2-4]
130 to 200	< 10	< 1000	CCC[C@@H](Nc1nc(Nc2cccc3c2cnn3CC)c(C(N)=O)cc1F)[C@H](C)N [Example 2-96, 6-(((2S,3R)-2-aminohexan-3-yl)amino)-2-((1-ethyl-1H-indazol-4-yl)amino)-5-fluoronicotinamide]
65 to 130	< 10	< 1000	CCn1ncc2c(Nc3nc(N[C@H](CC(C)C)[C@H](C)N)c(F)cc3C(N)=O)cncc21 [Example 2-322, 6-(((2S,3R)-2-amino-5-methylhexan-3-yl)amino)-2-((1-ethyl-1H-pyrazolo[3,4-c]pyridin-4-yl)amino)-5-fluoronicotinamide]
130 to 200	< 10	< 1000	CCn1nc(OC)c2cc(Nc3nc(N[C@H](CC(C)C)[C@H](C)N)c(F)cc3C(N)=O)ccc21 [Example 2-51, 6-(((2S,3R)-2-amino-5-methylhexan-3-yl)amino)-2-((1-ethyl-3-methoxy-1H-indazol-5-yl)amino)-5-fluoronicotinamide]
130 to 200	< 10	1000 to 3000	CC[C@@H](Nc1nc(Nc2ccc3c(c2)c(OC(F)F)nn3C)c(C(N)=O)cc1F)[C@H](C)N [Example 2-170, 6-(((2S,3R)-2-aminopentan-3-yl)amino)-2-((3-(difluoromethoxy)-1-methyl-1H-indazol-5-yl)amino)-5-fluoronicotinamide]
130 to 200	< 10	< 1000	CC(C)C[C@@H](Nc1nc(Nc2cccc3c2cnn3CC(F)F)c(C(N)=O)cc1F)[C@H](C)N [Example 2-22, 6-(((2S,3R)-2-amino-5-methylhexan-3-yl)amino)-2-((1-(2,2-difluoroethyl)-1H-indazol-4-yl)amino)-5-fluoronicotinamide]
130 to 200	< 10	< 1000	COCCn1nc(OC)c2cc(Nc3nc(N[C@H](CC(C)C)[C@H](C)N)c(F)cc3C(N)=O)ccc21 [Example 2-127, 6-(((2S,3R)-2-amino-5-methylhexan-3-yl)amino)-5-fluoro-2-((3-methoxy-1-(2-methoxyethyl)-1H-indazol-5-yl)amino)nicotinamide]
130 to 200	10 to 50	1000 to 3000	CC[C@H](N)[C@@H](C)Nc1nc(Nc2ccc3c(c2)c(C)nn3CCOC)c(C(N)=O)cc1F [Example 2-136, 6-(((2R,3S)-3-aminopentan-2-yl)amino)-5-fluoro-2-((1-(2-methoxyethyl)-3-methyl-1H-indazol-5-yl)amino)nicotinamide]
65 to 130	< 10	< 1000	CCC[C@@H](Nc1nc(Nc2ccc3c(c2)c(OC)nn3CCOC)c(C(N)=O)cc1F)[C@H](C)N [Example 2-126, 6-(((2S,3R)-2-aminohexan-3-yl)amino)-5-fluoro-2-((3-methoxy-1-(2-methoxyethyl)-1H-indazol-5-yl)amino)nicotinamide]
130 to 200	< 10	1000 to 3000	COC[C@@H](Nc1nc(Nc2ccc3c(c2)c(OC)nn3C)c(C(N)=O)cc1F)[C@H](C)N [Example 2-121, 6-(((2S,3S)-3-amino-1-methoxybutan-2-yl)amino)-5-fluoro-2-((3-methoxy-1-methyl-1H-indazol-5-yl)amino)nicotinamide]
